Results on 57 compounds are retold here after patent publication EP1900728A1 (Genecare Research Institute Co., Ltd, priority 2005, dated 2006).

Molecules are shown by their SMILES. pIC50: −log10 of the molar value. Bounds are passed on as bounds.

The target in this test is T1, IκBα ubiquitinating enzyme (SCF complex: ROC1, Cullin1, Skp1, His-TrCP1; with E1, UbcH5b) (Homo sapiens, UniProt P62877+P63208+Q13616+Q9Y297).
T1 construct: His (polyhistidine); made in house; host or cells: insect cells (baculovirus) for the SCF complex and His-E1; E. coli for His-UBCH5b
T1 sequence (Q9Y297 whole entry): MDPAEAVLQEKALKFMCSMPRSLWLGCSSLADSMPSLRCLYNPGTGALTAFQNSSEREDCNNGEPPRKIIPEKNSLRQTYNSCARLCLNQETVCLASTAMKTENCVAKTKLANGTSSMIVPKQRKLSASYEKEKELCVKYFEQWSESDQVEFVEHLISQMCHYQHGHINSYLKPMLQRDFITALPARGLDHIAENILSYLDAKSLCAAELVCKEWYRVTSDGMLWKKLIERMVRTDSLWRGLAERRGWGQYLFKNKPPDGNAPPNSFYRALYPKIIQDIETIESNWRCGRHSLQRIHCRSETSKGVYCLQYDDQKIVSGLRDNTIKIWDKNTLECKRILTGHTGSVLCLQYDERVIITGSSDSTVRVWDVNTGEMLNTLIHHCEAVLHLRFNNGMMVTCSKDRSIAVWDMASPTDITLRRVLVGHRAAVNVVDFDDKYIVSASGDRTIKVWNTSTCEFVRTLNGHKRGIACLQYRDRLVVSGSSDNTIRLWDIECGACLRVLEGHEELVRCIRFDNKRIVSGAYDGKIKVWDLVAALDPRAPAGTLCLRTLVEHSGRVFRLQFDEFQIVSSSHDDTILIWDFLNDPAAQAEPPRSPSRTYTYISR
T1 sequence (Q13616 whole entry): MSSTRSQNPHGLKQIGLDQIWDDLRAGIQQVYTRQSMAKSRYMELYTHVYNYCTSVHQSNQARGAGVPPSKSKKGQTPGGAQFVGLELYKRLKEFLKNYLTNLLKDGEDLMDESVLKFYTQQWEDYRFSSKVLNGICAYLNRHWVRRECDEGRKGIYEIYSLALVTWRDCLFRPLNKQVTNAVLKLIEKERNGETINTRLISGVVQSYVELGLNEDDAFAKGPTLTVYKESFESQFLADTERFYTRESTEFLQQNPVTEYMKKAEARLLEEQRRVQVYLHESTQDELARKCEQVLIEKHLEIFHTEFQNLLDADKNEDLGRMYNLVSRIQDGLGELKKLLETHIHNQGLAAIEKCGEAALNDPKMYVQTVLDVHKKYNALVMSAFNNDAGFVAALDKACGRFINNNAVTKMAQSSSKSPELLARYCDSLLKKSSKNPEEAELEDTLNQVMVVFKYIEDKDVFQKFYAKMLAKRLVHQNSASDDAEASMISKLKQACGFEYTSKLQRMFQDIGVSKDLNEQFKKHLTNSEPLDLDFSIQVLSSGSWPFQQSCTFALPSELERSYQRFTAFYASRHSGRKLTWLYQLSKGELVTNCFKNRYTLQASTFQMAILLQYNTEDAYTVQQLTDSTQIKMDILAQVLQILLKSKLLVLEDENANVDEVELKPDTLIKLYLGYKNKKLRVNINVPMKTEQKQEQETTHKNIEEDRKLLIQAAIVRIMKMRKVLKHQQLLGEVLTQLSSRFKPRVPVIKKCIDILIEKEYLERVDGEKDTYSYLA
T1 sequence (P63208 whole entry): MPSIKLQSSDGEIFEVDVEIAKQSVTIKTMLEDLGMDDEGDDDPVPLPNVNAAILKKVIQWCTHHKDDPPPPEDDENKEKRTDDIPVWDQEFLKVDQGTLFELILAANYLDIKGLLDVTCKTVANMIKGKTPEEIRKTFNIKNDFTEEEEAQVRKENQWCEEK
T1 sequence (P62877 whole entry): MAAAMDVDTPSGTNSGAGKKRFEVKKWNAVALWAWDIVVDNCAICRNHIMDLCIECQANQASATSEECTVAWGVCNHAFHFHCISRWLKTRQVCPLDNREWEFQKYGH
Nature of the test: Measurement of ubiquitinating enzyme activity (IκBα ubiquitination, time-resolved fluorescence with Eu(K)-labeled ubiquitin and XL665-labeled anti-GST antibody). It is filed as biochemical. To be noted: enzyme activity inhibition test, method (1), Table 5; read-out: EVALUATION
As for the experimental part: Method 1: Measurement of ubiquitinating enzyme activity
A recombinant vector His-UBCH5b containing a polyhistidine tag (His) and UBCH5b was prepared. E. coli was transformed with the vector, the protein was expressed, and affinity purification was carried out using Ni-NTA agarose (Qiagen). Four types of recombinant baculoviruses (ROC1, Cullin1, Skp1, and His-TrCP1) were prepared for the SCF complex protein, insect cells were infected in quadruplicate for expression, and affinity purification was carried out using Ni-NTA agarose. Recombinant baculoviruses His-IKKβ, His-E1 were prepared. The insect cells were infected with each of those for expression, and affinity purification was carried out using Ni-NTA agarose. A recombinant vector GST-IκBα was prepared by fusing glutathione-S-transferase tag (GST) and IκBα, E. coli was transformed with the vector for the protein expression, and affinity purification was carried out using glutathione sepharose (Amersham Biosciences). Genetic transformants were prepared by PCR amplification followed by recombination, all of which were based on published human-derived sequences.
Phosphorylation reaction of IκBα was performed by incubating the above-mentioned assay buffer (50 mM Tris-HCl (pH7.4), 2 mM ATP, 5 mM MgCl2, 0.5 mM DTT, 0.1% BSA) containing IκBα and IKKβ at room temperature for 1 hour. Ubiquitination reactions were carried out as follows. Compound samples at various concentrations, ubiquitin, Eu (K)-labeled ubiquitin, E1, UbcH5b, and SCF complex were added to phosphorylated IκBα, and then this was incubated at room temperature for 30 minutes. The reaction was terminated by adding EDTA, the above-mentioned revelation buffer (100 mM phosphate buffer (pH7.0), 0.5 M KF, 0.1% BSA) containing XL665-labeled anti-GST antibody was added and this was left to stand at room temperature for 2 hours. Measurements were made using ARVO-HTS (Perkin Elmer). The ratio of fluorescence intensities at 620 nm and 665 nm (Em 665 nm/Em 620 nm x 10,000) with excitation light at 337 nm was measured.
The ubiquitination level without the addition of a compound sample was used as the control value, and the level in the absence of SCF complex was used as the blank value for the assays. Inhibitory activities of the compounds were indicated as % inhibition = 100 - (value with a compound sample added - blank value) / (control value - blank value) x 100. IC50 was indicated as the concentration of the compound showing 50% inhibition. Eu (K)-labeled ubiquitin, XL665-labeled anti-GST antibody, and XL665-labeled anti-His antibody were purchased from CIS bio international. Costar solid black plates (96 wells) were used for the assays.
Turning to `COc1cc(/C=C2\C(=O)N(c3cccc(S(N)(=O)=O)c3)N=C2C)ccc1OCn1nnc2ccccc21` [Compound 157], the pIC50 is 4.70 to 5.00.

`CC1=NN(c2ccc(C(=O)NCC(C)O)cc2)C(=O)C1=Cc1ccc2c(c1)OCCO2` (stereo not drawn) [Compound 398]: the pIC50 is over 4.40.

For `CC1=NN(c2cccc(S(N)(=O)=O)c2)C(=O)C1=Cc1cc2ccccc2n1C` [Compound 141], the pIC50 was 4.70 to 5.00.

For the compound `O=C(O)c1cccc(N2N=C(c3ccoc3)/C(=C/c3ccc(CO)o3)C2=O)c1` [Compound 488], the pIC50 is 4.70 to 5.00.

Regarding `CC1=NN(c2ccc(C(=O)N(C)C)cc2)C(=O)/C1=C\c1ccc2[nH]ccc2c1` [Compound 363], the pIC50 is 4.70 to 5.00.

`CCOC(=O)c1ccc(COc2ccc(/C=C3\C(=O)N(c4cccc(C(=O)O)c4)N=C3C)cc2OC)o1` [Compound 395]: the pIC50 was over 4.40.

On to `CC1=NN(c2cccc(C(=O)O)c2)C(=O)/C1=C\c1ccc(N2CCNCC2)cc1` [Compound 452], for which the pIC50 was over 5.00.

For `CC1=NN(c2cccc(C(=O)O)c2)C(=O)/C1=C\c1ccc2c(c1)OCCO2` [Compound 402], the pIC50 is 4.70 to 5.00.

As to `COc1cc(/C=C2\C(=O)N(c3cccc(C(=O)O)c3)N=C2C)ccc1OCc1c(C)noc1C` [Compound 394], the pIC50 is 4.70 to 5.00.

As for `CC1=NN(c2cccc(S(N)(=O)=O)c2)C(=O)C1=Cc1cccc2[nH]ccc12` [Compound 137], the pIC50 was 4.70 to 5.00.

For the compound `COc1ccc(C2=NN(c3ccc(C(=O)O)cc3)C(=O)C2=Cc2ccc(-n3cccn3)cc2)cc1OC` [Compound 342], the pIC50 was over 4.40.

Take `CC1=NN(c2cccc(C(=O)O)c2)C(=O)/C1=C\c1ccc2c(ccn2C)c1` [Compound 493]: the pIC50 was over 5.00.

For `CC1=NN(c2cccc(S(N)(=O)=O)c2)C(=O)/C1=C\c1ccc(-n2cccn2)cc1` [Compound 145], the pIC50 is 4.70 to 5.00.

As for `O=C1/C(=C\c2ccc3c(c2)OCCO3)C(c2ccncc2)=NN1c1ccccc1` [Compound 46], the pIC50 was over 4.40.

As for `CC1=NN(c2ccc(C(=O)O)cc2)C(=O)/C1=C\c1c(C)nn(C)c1Cl` [Compound 514], the pIC50 is over 4.40.

Consider `CC1=NN(c2cccc(C(=O)O)c2)C(=O)/C1=C\c1ccc(N2CCN(C(=O)c3ccoc3)CC2)cc1` [Compound 444], for which the pIC50 is over 5.00.

As for `O=C1/C(=C\c2ccc(-n3cccn3)cc2)C(C2CC2)=NN1c1ccccc1` [Compound 79], the pIC50 was over 4.40.

In the case of `CC(C)(C)OC(=O)N1CCN(C(=O)C2=NN(c3ccccc3)C(=O)C2=Cc2ccc(N3CCCC3)cc2)CC1` [Compound 89], the pIC50 was over 4.40.

In the case of `CC1=NN(c2ccc(C(=O)O)cc2)C(=O)/C1=C\c1ccsc1` [Compound 511], the pIC50 is over 4.40.

Take `CC1=NN(c2cccc(C(=O)N3CCC(C(=O)O)CC3)c2)C(=O)/C1=C\c1ccc2[nH]ccc2c1` [Compound 374]: the pIC50 was over 5.00.

In the case of `O=C1/C(=C\c2ccc(CO)o2)C(c2ccccn2)=NN1c1ccccc1` [Compound 48], the pIC50 was over 4.40.

Turning to `CC1=NN(c2cccc(S(N)(=O)=O)c2)C(=O)/C1=C\c1ccc(N2CCNCC2)cc1` [Compound 184], the pIC50 was 4.70 to 5.00.

For the compound `CCCCC1=NN(c2ccccc2)C(=O)/C1=C\c1ccc2c(c1)OCCO2` [Compound 98], the pIC50 is 4.70 to 5.00.

For the compound `CC1=NN(c2cccc(S(N)(=O)=O)c2)C(=O)/C1=C\c1ccc2cc[nH]c2c1` [Compound 149], the pIC50 is over 5.00.

Consider `COc1cc(/C=C2/C(=O)N(c3ccccc3F)N=C2C)ccc1O` [Compound 197], for which the pIC50 was over 4.40.

For the compound `COCC1=NN(c2ccc(C(=O)O)cc2)C(=O)/C1=C\c1ccc(N2CCN(C)CC2)cc1` [Compound 241], the pIC50 was over 4.40.

`O=C1/C(=C\c2ccc(-n3cncn3)cc2)C(Cc2ccccc2)=NN1c1ccccc1` [Compound 31]: the pIC50 is over 4.40.

With `CCCCC1=NN(c2ccccc2)C(=O)/C1=C\c1ccc(-n2cncn2)cc1` [Compound 59], the pIC50 is 4.70 to 5.00.

Take `CC1=NN(c2cccc(C(=O)O)c2)C(=O)/C1=C\c1ccc(N2CCN(C(=O)c3cnoc3)CC2)cc1` [Compound 445]: the pIC50 is over 5.00.

`CC1=NN(c2cccc(S(N)(=O)=O)c2)C(=O)/C1=C\c1ccc(N2CCN(c3ccccc3)CC2)cc1` [Compound 170]: the pIC50 was over 5.00.

Take `COCC1=NN(c2ccc(C(=O)O)cc2)C(=O)C1=Cc1ccc(N2CCC(O)CC2)s1` [Compound 240]: the pIC50 is over 4.40.

Take `COc1cc(C=C2C(=O)N(c3ccc(C(C)(C)C)cc3)N=C2C)ccc1O` [Compound 196]: the pIC50 was over 5.00.

As for `CC1=NN(c2ccc(S(N)(=O)=O)cc2)C(=O)C1=Cc1ccc(N2CCCC2CO)cc1` (stereo not drawn) [Compound 172], the pIC50 was over 4.40.

Turning to `COc1cc(/C=C2\C(=O)N(c3cccc(C(=O)O)c3)N=C2C)ccc1OCC1CC1` [Compound 393], the pIC50 is 4.70 to 5.00.

With `CC1=NN(c2cccc(S(N)(=O)=O)c2)C(=O)/C1=C\c1ccc2occc2c1` [Compound 143], the pIC50 was over 4.40.

Take `CC1=NN(c2ccc(S(N)(=O)=O)cc2)C(=O)/C1=C\c1ccc(-n2cncn2)cc1` [Compound 109]: the pIC50 was over 4.40.

Turning to `CC(=O)OCc1ccc(/C=C2\C(=O)N(c3cccc(C(=O)O)c3)N=C2C)o1` [Compound 516], the pIC50 was over 4.40.

Regarding `COC(=O)N1CCN(c2ccc(C=C3C(=O)N(c4ccc(C(=O)O)cc4)N=C3c3ccccn3)cc2)CC1` [Compound 335], the pIC50 was 4.70 to 5.00.

As for `COc1cc(/C=C2\C(=O)N(c3ccccc3)N=C2C2CC2)ccc1OCc1ccccc1` [Compound 71], the pIC50 was over 5.00.

For `COCCNC(=O)c1cccc(N2N=C(C)/C(=C/c3ccc4c(c3)OCCO4)C2=O)c1` [Compound 405], the pIC50 was over 4.40.

`COc1cc(/C=C2\C(=O)N(c3ccc(S(N)(=O)=O)cc3)N=C2C)ccc1OCn1nnc2ccccc21` [Compound 156]: the pIC50 is 4.70 to 5.00.

As to `O=C(O)c1ccc(N2N=C(c3ccccn3)/C(=C/c3ccc(-n4cccn4)cc3)C2=O)cc1` [Compound 294], the pIC50 is over 4.40.

Consider `CC1=NN(c2ccc(S(N)(=O)=O)cc2)C(=O)/C1=C\c1ccc(N2CCC(CO)CC2)cc1` [Compound 171], for which the pIC50 was 4.70 to 5.00.

For `CC1=NN(c2ccc(S(N)(=O)=O)cc2)C(=O)C1=Cc1ccc(N2CCNCC2)cc1` [Compound 183], the pIC50 was 4.70 to 5.00.

As for `O=C(O)c1ccc(N2N=C(c3ccoc3)/C(=C/c3ccc4c(c3)OCO4)C2=O)cc1` [Compound 476], the pIC50 is over 5.00.

As for `O=C1/C(=C\c2ccc3c(c2)OCCO3)C(c2cccnc2)=NN1c1ccccc1` [Compound 66], the pIC50 was over 4.40.

Regarding `CC1=NN(c2ccc(S(N)(=O)=O)cc2)C(=O)C1=Cc1cc2ccccc2n1C` [Compound 142], the pIC50 is over 4.40.

For the compound `O=C(O)c1ccc(N2N=C(c3cccnc3)/C(=C/c3ccc(-c4ccccc4F)o3)C2=O)cc1` [Compound 339], the pIC50 is 4.70 to 5.00.

`NS(=O)(=O)c1ccc(N2N=C(C3CC3)/C(=C/c3ccc(-n4cccn4)cc3)C2=O)cc1` [Compound 110]: the pIC50 is over 5.00.

Turning to `CC1=NN(c2cccc(C(=O)O)c2)C(=O)/C1=C\c1c(C)nn(C)c1Cl` [Compound 513], the pIC50 was over 4.40.

`COc1cc(/C=C2\C(=O)N(c3ccc(S(N)(=O)=O)cc3)N=C2C)ccc1OCc1c(C)noc1C` [Compound 158]: the pIC50 is over 4.40.

For `O=C1/C(=C\c2ccc(-n3cncn3)cc2)C(C2CC2)=NN1c1ccccc1` [Compound 80], the pIC50 was over 4.40.

As for `O=C(O)c1ccc(N2N=C(c3cccnc3)C(=Cc3ccc4ccccc4c3)C2=O)cc1` [Compound 345], the pIC50 is 4.70 to 5.00.

For `CC1=NN(c2ccc(C(=O)N3CCOCC3)cc2)C(=O)/C1=C\c1ccc2[nH]ccc2c1` [Compound 357], the pIC50 is over 5.00.

Consider `CC1=NN(c2cccc(C(=O)O)c2)C(=O)/C1=C\c1ccc2occc2c1` [Compound 368], for which the pIC50 is over 5.00.

On to `CC1=NN(c2cccc(C(=O)NC[C@H](C)O)c2)C(=O)/C1=C\c1ccc2c(c1)OCCO2` [Compound 401], for which the pIC50 is 4.70 to 5.00.

`COCC1=NN(c2ccccc2)C(=O)/C1=C\c1ccc(N2CCN(C(=O)OC)CC2)cc1` [Compound 5]: the pIC50 was over 4.40.
